Source: publication PMC3663535, “Substrate Selectivity of the Acid-activated Glutamate/γ-Aminobutyric acid (GABA) Antiporter GadC from Escherichia coli” (The Journal of Biological Chemistry, 2013)

Target: T1, WT GadC (Escherichia coli, UniProt P63235)
T1 construct: full-length wild type; hexahistidine tag proteolytically removed; recombinant, reconstituted in E. coli polar lipid proteoliposomes
Assay: proteoliposome Gln/GABA exchange with membrane potential
Format: biochemical
Conditions: 5 mM internal GABA, efflux followed through influx of 50 μM external [3H]Gln; pH 5.5

T1 sequence (P63235 whole entry): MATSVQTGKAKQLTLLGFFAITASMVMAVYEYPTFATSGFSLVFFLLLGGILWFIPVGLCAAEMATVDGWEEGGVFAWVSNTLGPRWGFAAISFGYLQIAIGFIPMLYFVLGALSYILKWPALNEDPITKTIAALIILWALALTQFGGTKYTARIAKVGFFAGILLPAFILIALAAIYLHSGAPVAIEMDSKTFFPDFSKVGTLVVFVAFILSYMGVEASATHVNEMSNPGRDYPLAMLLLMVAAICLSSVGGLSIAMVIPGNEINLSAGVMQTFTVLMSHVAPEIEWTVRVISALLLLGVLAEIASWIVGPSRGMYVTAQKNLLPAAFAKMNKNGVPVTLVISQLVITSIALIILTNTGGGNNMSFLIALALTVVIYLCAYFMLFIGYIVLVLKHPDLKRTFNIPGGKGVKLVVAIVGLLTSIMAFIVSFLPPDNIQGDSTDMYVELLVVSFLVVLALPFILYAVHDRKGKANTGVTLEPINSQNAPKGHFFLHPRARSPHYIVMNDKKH

## NCCCC(=O)O [GABA]
  proteoliposome Gln/GABA exchange with membrane potential: confirm our prediction that GABA^+ is the transport substrate for GadC
